Measured values reported in US11629171B2, “Beta-hairpin peptidomimetics” (POLYPHOR AG, priority 2017, dated 2023).
In brackets after ≈: the same amount, converted by molar mass. Where a SMILES comes first, the peptide text is derived from it. Bridges are numbered along the chain shown (N, C = ends). Roman numbers before positions name the chains, in order. [ ]: non-standard residue; d: D form. Thr(ol) = C[C@@H](O)[C@H](N)CO; Pen = CC(C)(S)[C@H](N)C(=O)O; Tle = CC(C)(C)[C@H](N)C(=O)O; Hiv = CC(C)[C@H](O)C(=O)O; dDab = NCC[C@@H](N)C(=O)O; hSer = N[C@@H](CCO)C(=O)O; Dab = NCC[C@H](N)C(=O)O

What was measured:
Type in all cases: cell-based
[1] = test system: Acinetobacter baumannii 872842; details: 872842
Summary of the method: (§1)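 Cation-adjusted MH-II broth, 0.002% polysorbate 80, inoculum near 10^6 CFU/mL. MIC read visually after 18-20 h, 35° C; units μg/mL.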

[2] = test system: Acinetobacter baumannii DSM 30008; details: DSM 30008
Summary of the method: as §1

[3] = test system: Enterobacter cloacae 848840; details: 848840
Summary of the method: as §1

Escherichia coli 926415 = details: 926415
Summary of the method: as §1

[4] = test system: Escherichia coli ATCC 25922; details: ATCC 25922
Summary of the method: as §1

[5] = test system: Klebsiella pneumoniae 968733; details: 968733
Summary of the method: as §1

[6] = test system: Klebsiella pneumoniae SSI #3010; details: SSI #3010
Summary of the method: as §1

[7] = test system: Pseudomonas aeruginosa ATCC 27853; details: ATCC 27853
Summary of the method: as §1

[8] = test system: human red blood cells (hRBC); test: Hemolysis; details: red cells of human, 1 h, 200
Summary of the method: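 Washed fresh human RBC (20% v/v) incubated with peptide at 200 μg/mL for 1 h at 37° C with shaking. Supernatant OD540 measured after dilution, blank corrected; percent hemolysis = OD540 peptide / OD540 of 2% Triton X-100 lysis × 100, PBS with 10% water as 0%.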

Row | MIC [1] [µg/mL] | MIC [2] [µg/mL] | MIC [3] [µg/mL] | MIC (Escherichia coli 926415) [µg/mL] | MIC [4] [µg/mL] | MIC [5] [µg/mL] | MIC [6] [µg/mL] | MIC [7] [µg/mL] | Compound | Hemolysis at 200 μg/mL [8] [%]
1 | 0.125 (≈ 0.0521 µM) | 0.0625 (≈ 0.026 µM) | 0.125 (≈ 0.0521 µM) | 0.25 (≈ 0.104 µM) | 0.0625 (≈ 0.026 µM) | 0.25 (≈ 0.104 µM) | 0.0625 (≈ 0.026 µM) | 0.125 (≈ 0.0521 µM) | CC(C)C[C@@H]1NC(=O)[C@@H](CC(C)C)NC(=O)[C@H](CCN)NC(=O)[C@@H](NC(=O)[C@H](CCN)NC(=O)[C@@H](NC(=O)[C@H](CCN)NC(=O)CC[C@@H]2NC(=O)[C@H](CCN)NC(=O)[C@H](Cc3ccc(O)cc3)NC(=O)[C@@H](NC(=O)[C@@H](O)C(C)C)CSSC[C@@H](C(=O)N[C@H](CO)[C@@H](C)O)NC(=O)[C@H](C(C)(C)C)NC(=O)[C@H](CCO)NC(=O)[C@H](Cc3c[nH]c4ccccc34)NC(=O)[C@H](CO)NC(=O)[C@@H](CCN)NC2=O)[C@@H](C)O)CCNC(=O)[C@H]([C@@H](C)O)NC(=O)[C@H](CCN)NC(=O)[C@H](CCN)NC1=O [Ex. 83] (I: H-[Hiv]CY[Dab]E[dDab]SW[hSer][Tle]C[Thr(ol)] / II: [Dab]T[Dab][Dab][Dab][dL]L[Dab][Dab]T; disulfide I:2-I:11; amide I:5-II:N; lactam II:4-II:C) | <1
2 | 0.25 (≈ 0.105 µM) | 0.0625 (≈ 0.0264 µM) | 2 (≈ 0.844 µM) | 0.0625 (≈ 0.0264 µM) | 0.0625 (≈ 0.0264 µM) | 0.125 (≈ 0.0527 µM) | 0.125 (≈ 0.0527 µM) | 0.125 (≈ 0.0527 µM) | CC(C)C[C@@H]1NC(=O)[C@@H](CC(C)C)NC(=O)[C@H](CCN)NC(=O)[C@@H](NC(=O)[C@H](CCN)NC(=O)[C@@H](NC(=O)[C@H](CCN)NC(=O)CC[C@@H]2NC(=O)[C@H](CCN)NC(=O)[C@H](Cc3ccc(O)cc3)NC(=O)[C@@H](NC(=O)[C@@H](O)C(C)C)CSSC[C@@H](C(=O)N[C@H](CO)[C@@H](C)O)NC(=O)[C@H](C(C)(C)C)NC(=O)CNC(=O)[C@H](Cc3c[nH]c4ccccc34)NC(=O)[C@H](CCO)NC(=O)[C@@H](CCN)NC2=O)[C@@H](C)O)CCNC(=O)[C@H]([C@@H](C)O)NC(=O)[C@H](CCN)NC(=O)[C@H](CCN)NC1=O [Ex. 87] (I: H-[Hiv]CY[Dab]E[dDab][hSer]WG[Tle]C[Thr(ol)] / II: [Dab]T[Dab][Dab][Dab][dL]L[Dab][Dab]T; disulfide I:2-I:11; amide I:5-II:N; lactam II:4-II:C) | <1

The next lines start with the compound.

Row | Compound | MIC [1] [µg/mL] | MIC [2] [µg/mL] | MIC [3] [µg/mL] | MIC (Escherichia coli 926415) [µg/mL] | MIC [4] [µg/mL] | MIC [5] [µg/mL] | MIC [6] [µg/mL] | MIC [7] [µg/mL] | Hemolysis at 200 μg/mL [8] [%]
3 | CC(C)C[C@@H]1NC(=O)[C@@H](CC(C)C)NC(=O)[C@H](CCN)NC(=O)[C@@H](NC(=O)[C@H](CCN)NC(=O)[C@@H](NC(=O)[C@H](CCN)NC(=O)CC[C@@H]2NC(=O)[C@H](CCN)NC(=O)[C@H](Cc3ccc(O)cc3)NC(=O)[C@@H](NC(=O)[C@@H](O)C(C)C)C(C)(C)SSC[C@@H](C(=O)N[C@H](CO)[C@@H](C)O)NC(=O)[C@H](C(C)(C)C)NC(=O)[C@H](CO)NC(=O)[C@H](Cc3c[nH]c4ccccc34)NC(=O)[C@H](CCO)NC(=O)[C@@H](CCN)NC2=O)[C@@H](C)O)CCNC(=O)[C@H]([C@@H](C)O)NC(=O)[C@H](CCN)NC(=O)[C@H](CCN)NC1=O [Ex. 84] (I: H-[Hiv][Pen]Y[Dab]E[dDab][hSer]WS[Tle]C[Thr(ol)] / II: [Dab]T[Dab][Dab][Dab][dL]L[Dab][Dab]T; disulfide I:2-I:11; amide I:5-II:N; lactam II:4-II:C) | 0.125 (≈ 0.0515 µM) | 0.125 (≈ 0.0515 µM) | 0.25 (≈ 0.103 µM) | 0.125 (≈ 0.0515 µM) | 0.0625 (≈ 0.0257 µM) | 0.125 (≈ 0.0515 µM) | 0.125 (≈ 0.0515 µM) | 0.25 (≈ 0.103 µM) | <1
4 | CC(C)C[C@@H]1NC(=O)[C@@H](CC(C)C)NC(=O)[C@H](CCN)NC(=O)[C@@H](NC(=O)[C@H](CCN)NC(=O)[C@@H](NC(=O)[C@H](CCN)NC(=O)CC[C@@H]2NC(=O)[C@H](CCN)NC(=O)[C@H](Cc3ccc(O)cc3)NC(=O)[C@@H](NC(=O)[C@@H](O)C(C)C)CSSC(C)(C)[C@@H](C(=O)N[C@H](CO)[C@@H](C)O)NC(=O)[C@H](C(C)(C)C)NC(=O)[C@H](CO)NC(=O)[C@H](Cc3c[nH]c4ccccc34)NC(=O)[C@H](CCO)NC(=O)[C@@H](CCN)NC2=O)[C@@H](C)O)CCNC(=O)[C@H]([C@@H](C)O)NC(=O)[C@H](CCN)NC(=O)[C@H](CCN)NC1=O [Ex. 85] (I: H-[Hiv]CY[Dab]E[dDab][hSer]WS[Tle][Pen][Thr(ol)] / II: [Dab]T[Dab][Dab][Dab][dL]L[Dab][Dab]T; disulfide I:2-I:11; amide I:5-II:N; lactam II:4-II:C) | 0.25 (≈ 0.103 µM) | 0.25 (≈ 0.103 µM) | 0.125 (≈ 0.0515 µM) | 0.25 (≈ 0.103 µM) | 0.0625 (≈ 0.0257 µM) | 0.25 (≈ 0.103 µM) | 0.125 (≈ 0.0515 µM) | 0.25 (≈ 0.103 µM) | 1
5 | CC(=O)N[C@@H](C(=O)N[C@H]1CSSC[C@@H](C(=O)N[C@H](CO)[C@@H](C)O)NC(=O)[C@H](C(C)(C)C)NC(=O)[C@H](CO)NC(=O)[C@H](Cc2c[nH]c3ccccc23)NC(=O)[C@H](CCO)NC(=O)[C@@H](CCN)NC(=O)[C@H](CCC(=O)N[C@@H](CCN)C(=O)N[C@H](C(=O)N[C@@H](CCN)C(=O)N[C@H]2CCNC(=O)[C@H]([C@@H](C)O)NC(=O)[C@H](CCN)NC(=O)[C@H](CCN)NC(=O)[C@H](CC(C)C)NC(=O)[C@@H](CC(C)C)NC(=O)[C@H](CCN)NC2=O)[C@@H](C)O)NC(=O)[C@H](CCN)NC(=O)[C@H](Cc2ccc(O)cc2)NC1=O)C(C)C [Ex. 86] (I: Ac-[dV]CY[Dab]E[dDab][hSer]WS[Tle]C[Thr(ol)] / II: [Dab]T[Dab][Dab][Dab][dL]L[Dab][Dab]T; disulfide I:2-I:11; amide I:5-II:N; lactam II:4-II:C) | 0.25 (≈ 0.102 µM) | 0.0625 (≈ 0.0256 µM) | 1 (≈ 0.41 µM) | 0.25 (≈ 0.102 µM) | 0.125 (≈ 0.0512 µM) | 0.125 (≈ 0.0512 µM) | 0.125 (≈ 0.0512 µM) | 0.125 (≈ 0.0512 µM) | <1
6 | CC(C)C[C@@H]1NC(=O)[C@@H](CC(C)C)NC(=O)[C@H](CCN)NC(=O)[C@@H](NC(=O)[C@H](CCN)NC(=O)[C@@H](NC(=O)[C@H](CCN)NC(=O)CC[C@@H]2NC(=O)[C@H](CO)NC(=O)[C@H](Cc3ccc(O)cc3)NC(=O)[C@@H](NC(=O)[C@@H](O)C(C)C)CSSC[C@@H](C(=O)N[C@H](CO)[C@@H](C)O)NC(=O)[C@H](C(C)(C)C)NC(=O)[C@H](CO)NC(=O)[C@H](Cc3c[nH]c4ccccc34)NC(=O)[C@H](CCO)NC(=O)[C@@H](CCN)NC2=O)[C@@H](C)O)CCNC(=O)[C@H]([C@@H](C)O)NC(=O)[C@H](CCN)NC(=O)[C@H](CCN)NC1=O [Ex. 88] (I: H-[Hiv]CYSE[dDab][hSer]WS[Tle]C[Thr(ol)] / II: [Dab]T[Dab][Dab][Dab][dL]L[Dab][Dab]T; disulfide I:2-I:11; amide I:5-II:N; lactam II:4-II:C) | 0.125 (≈ 0.0523 µM) | 0.03125 (≈ 0.0131 µM) | 0.125 (≈ 0.0523 µM) | 0.125 (≈ 0.0523 µM) | 0.0625 (≈ 0.0262 µM) | 0.125 (≈ 0.0523 µM) | 0.125 (≈ 0.0523 µM) | 0.125 (≈ 0.0523 µM) | <1
7 | CC(C)C[C@@H]1NC(=O)[C@@H](CC(C)C)NC(=O)[C@H](CCN)NC(=O)[C@@H](NC(=O)[C@H](CCN)NC(=O)[C@@H](NC(=O)[C@H](CCN)NC(=O)CC[C@@H]2NC(=O)[C@H](CCN)NC(=O)[C@H](C(C)C)NC(=O)[C@@H](NC(=O)[C@@H](O)C(C)C)CSSC[C@@H](C(=O)N[C@H](CO)[C@@H](C)O)NC(=O)[C@H](Cc3ccc(O)cc3)NC(=O)[C@H](CO)NC(=O)[C@H](Cc3c[nH]c4ccccc34)NC(=O)[C@H](CCO)NC(=O)[C@@H](CCN)NC2=O)[C@@H](C)O)CCNC(=O)[C@H]([C@@H](C)O)NC(=O)[C@H](CCN)NC(=O)[C@H](CCN)NC1=O [Ex. 89] (I: H-[Hiv]CV[Dab]E[dDab][hSer]WSYC[Thr(ol)] / II: [Dab]T[Dab][Dab][Dab][dL]L[Dab][Dab]T; disulfide I:2-I:11; amide I:5-II:N; lactam II:4-II:C) | 0.5 (≈ 0.209 µM) | 0.0625 (≈ 0.0262 µM) | 0.5 (≈ 0.209 µM) | 0.5 (≈ 0.209 µM) | 0.125 (≈ 0.0524 µM) | 1 (≈ 0.419 µM) | 0.125 (≈ 0.0524 µM) | 0.25 (≈ 0.105 µM) | <1
